What is called pKa is the negative logarithm of the acid dissociation constant.

The text below walks through data of patent US20240299412A1, “DRUG FORMULATIONS OF 4-(3,3-DIFLUORO-2,2-DIMETHYL-PROPANOYL) -3,5-DIHYDRO-2H-PYRIDO[3,4-f][1,4]OXAZEPINE-9-CARBONITRILE” (Genzyme Corporation, priority 2023, published 2024).

Type in all cases: physicochemical
The nature of series [1]: pKa measurement (Sirius T3, UV metric method). The settings on record: MeOH as solvent, Yasuda-Shedlovsky extrapolation, ionic strength 0.176M, 28.9° C., to be taken as reference (effective range pH 2-12). The protocol: pKa. The pKa was measured by a Sirius pKa log P/D tester (model: T3) with a UV detector (UV metric method) using MeOH as solvent.
In addition, the pKa value of Compound (1) starting material was measured to be 1.68 by a Sirius pKa log P/D tester (model: T3) with a UV detector (UV metric method) using MeOH as solvent. The pKa value should be taken as reference because the effective pH range of UV metric method is pH 2-12.

A short description of another series: Cohesion evaluation. The source says: Different options were explored to improve the cohesion property of the tablet, for example, by change of lactose and mannitol grades (standard grade in place of Spray Dried grade), using anhydrous lactose in place of monohydrate lactose Spray-Dried, using different ratios of lactose/mannitol, or using pregelatinized corn starch instead of mannitol, but only a decrease of tablet cohesion was observed.

A short description of a further series: Solid form screening. Particulars: 96 solid form screening experiments. The protocol: A total of 96 solid form screening experiments were performed using different crystallization or solid transformation methods.

With `CC(C)(C(=O)N1CCOc2c(C#N)cncc2C1)C(F)F` [Compound 1, 4-(3,3-difluoro-2,2-dimethyl-propanoyl)-3,5-dihydro-2H-pyrido[3,4-f][1,4]oxazepine-9-carbonitrile], in series [1], the pKa was 1.68. Moreover, the “cohesion property of the drug substance” value in “Cohesion evaluation” is given as “very low cohesion property”. Also, in the series “Solid form screening”, the “crystal forms observed from screening” value is listed as “Only one crystal form”.
